Read-outs that look alike come from different tables or passages of the source.
Tests used:
[1] = tested on: HCV genotype 1a (H77 strain) replicon in HUH-7 cells; assay: HCV replicon luciferase reporter assay, genotype 1a; assay type: cell-based; conditions: Hepatitis C virus, Huh-7, 72 h, 3 days incubation
In short: (§1)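 Replicon inhibition for both genotypes was measured as Renilla luciferase signal (EnduRen, 7.5 μM final, 2 h) after 3-day, 37° C exposure of replicon-bearing HUH-7 cells in 4% FCS DMEM, 0.5% DMSO. The 1b construct carries S1179I; the 1a H77 construct carries P1496L and S2204I. Twenty-point, 3-fold dilutions were fitted four-parametrically for EC50, and CC50 was taken from multiplexed Cell Titer-Blue.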

[2] = tested on: HCV genotype 1b (Con1) replicon in HUH-7 cells; assay: HCV replicon luciferase reporter assay, genotype 1b; assay type: cell-based; conditions: Hepatitis C virus, Huh-7, 72 h, 3 days incubation
In short: as §1

[3] = HCV genotype 1a replicon luciferase assay, range class, read-out: LE_1a (EC50, range)
[4] = HCV genotype 1b replicon luciferase assay, range class, read-out: LE_1b (EC50, range)
[5] = HCV genotype 1a replicon luciferase, read-out: LE_1a (EC50, range)
[6] = HCV genotype 1b replicon luciferase, read-out: LE_1b (EC50, range)

| Compound | EC50 [1, 3] [nM] | EC50 [2, 4] [nM] | EC50 [1, 5] [nM] | EC50 [2, 6] [nM] | EC50 ([1]; HCV genotype 1a replicon luciferase, read-out: LE_1a (EC50)) [nM] | EC50 ([2]; HCV genotype 1b replicon luciferase, read-out: LE_1b (EC50)) [nM] |
| --- | --- | --- | --- | --- | --- | --- |
| C[C@@H]1CC/C=C\[C@@H]2C[C@@]2(C(=O)NS(=O)(=O)C2CC2)NC(=O)[C@@H]2C[C@@H](Oc3nc(OCC(F)F)cc4c(Cl)cccc34)CN2C(=O)[C@@H](NC(=O)OC(C)(C)C)[C@H](C)C1 [Compound 1076, tert-butyl ((2R,6S,7R,9R,13aS,14aR,16aS,Z)-2-((5-chloro-3-(2,2-difluoroethoxyl)isoquinolin-1-yl)oxy)-14a-((cyclopropylsulfonyl)carbamoyl)-7,9-dimethyl-5,16-dioxo-1,2,3,5,6,7,8,9,10,11,13a,14,14a,15,16,16a-hexadecahydrocyclopropa[e]pyrrolo[1,2-a][1,4]diazacyclopentadecin-6-yl)carbamate] | < 5.46 | < 5.46 | – | – | – | – |
| COc1ccc2c(O[C@@H]3C[C@H]4C(=O)N[C@]5(C(=O)NS(=O)(=O)C6(CF)CC6)C[C@H]5/C=C\CC[C@@H](C)C[C@@H](C)[C@H](NC(=O)OC(C)(C)C)C(=O)N4C3)nc(-c3ccc(OC(C)C)cc3)cc2c1 [Compound 4167, tert-butyl (2R,6S,7R,9R,13aS,14aR,16aS,Z)-14a-(1-(fluoromethyl)cyclopropylsulfonylcarbamoyl)-2-(3-(4-isopropoxyphenyl)-6-methoxyisoquinolin-1-yloxy)-7,9-dimethyl-5,16-dioxo-1,2,3,5,6,7,8,9,10,11,13a,14,14a,15,16,16a-hexadecahydrocyclopropa[e]pyrrolo[1,2-a][1,4]diazacyclopentadecin-6-ylcarbamate] | – | – | < 5.46 | < 5.46 | – | – |
| CC[C@@H]1C[C@H](C)CC/C=C\[C@@H]2C[C@@]2(C(=O)NS(=O)(=O)C2(C)CC2)NC(=O)[C@@H]2C[C@@H](Oc3nc4c(c5ccccc35)CCCO4)CN2C(=O)[C@H]1NC(=O)OC(C)(C)C(C)(F)F [Compound 6056, 3,3-difluoro-2-methylbutan-2-yl((2R,6S,7R,9R,13aS,14aR,16aS,Z)-2-((2,3-dihydro-1H-pyrano[2,3-c]isoquinolin-6-yl)oxy)-7-ethyl-9-methyl-14a-(((1-methylcyclopropyl)sulfonyl)carbamoyl)-5,16-dioxo-1,2,3,5,6,7,8,9,10,11,13a,14,14a,15,16,16a-hexadecahydrocyclopropa[e]pyrrolo[1,2-a][1,4]diazacyclopentadecin-6-yl)carbamate] | – | – | 1.01 to 5 | 0.1 to 0.5 | – | – |
| CC[C@@H]1C[C@H](C)CC/C=C\[C@@H]2C[C@@]2(C(=O)NS(=O)(=O)C2(C)CC2)NC(=O)[C@@H]2C[C@@H](Oc3nc4c(c5ccccc35)OCCC4)CN2C(=O)C1NC(=O)OC(C)(C)C(F)(F)F (stereo partly drawn) [Compound 6028, 1,1,1-trifluoro-2-methylpropan-2-yl((2R,6S,7R,9R,13aS,14aR,16aS,Z)-2-((3,4-dihydro-2H-pyrano[3,2-c]isoquinolin-6-yl)oxy)-7-ethyl-9-methyl-14a-(((1-methylcyclopropyl)sulfonyl)carbamoyl)-5,16-dioxo-1,2,3,5,6,7,8,9,10,11,13a,14,14a,15,16,16a-hexadecahydrocyclopropa[e]pyrrolo[1,2-a][1,4]diazacyclopentadecin-6-yl)carbamate] | – | – | < 5.46 | < 5.46 | – | – |
| C[C@@H]1CC/C=C\[C@@H]2C[C@@]2(C(=O)NS(=O)(=O)C2(CF)CC2)NC(=O)[C@@H]2C[C@@H](Oc3ncc(N4CCOCC4)c4ccccc34)CN2C(=O)[C@@H](NC(=O)OC(C)(C)C(C)(F)F)[C@H](C)C1 [Compound 5451, 3,3-difluoro-2-methylbutan-2-yl((2R,6S,7R,9R,13aS,14aR,16aS,Z)-14a-(((1-(fluoromethyl)cyclopropyl)sulfonyl)carbamoyl)-7,9-dimethyl-2-((4-morpholinoisoquinolin-1-yl)oxy)-5,16-dioxo-1,2,3,5,6,7,8,9,10,11,13a,14,14a,15,16,16a-hexadecahydrocyclopropa[e]pyrrolo[1,2-a][1,4]diazacyclopentadecin-6-yl)carbamate] | – | – | 1.01 to 5 | 1.01 to 5 | – | – |
| COc1cc2c(OC)cnc(O[C@@H]3C[C@H]4C(=O)N[C@]5(C(=O)NS(=O)(=O)C6(CF)CC6)C[C@H]5/C=C\CC[C@@H](C)C[C@@H](C)[C@H](NC(=O)C(C)(C)C)C(=O)N4C3)c2cc1F [Compound 4116, (2R,6S,7R,9R,13aS,14aR,16aS,Z)-2-(7-fluoro-4,6-dimethoxyisoquinolin-1-yloxy)-N-(1-(fluoromethyl)cyclopropylsulfonyl)-7,9-dimethyl-5,16-dioxo-6-pivalamido-1,2,3,5,6,7,8,9,10,11,13a,14,14a,15,16,16a-hexadecahydrocyclopropa[e]pyrrolo[1,2-a][1,4]diazacyclopentadecine-14a-carboxamide] | – | – | < 5.46 | < 5.46 | – | – |
| COc1ccc2c(O[C@@H]3C[C@H]4C(=O)N[C@]5(C(=O)NS(=O)(=O)C6(C)CC6)C[C@H]5/C=C\CC[C@@H](C)C[C@@H](C)[C@H](NC(=O)OC(C)(C)C(F)(F)F)C(=O)N4C3)nc(-c3ccc(N4CCOCC4)cc3)cc2c1 [Compound 5199, 1,1,1-trifluoro-2-methylpropan-2-yl((2R,6S,7R,9R,13aS,14aR,16aS,Z)-2-((6-methoxy-3-(4-morpholinophenyl)isoquinolin-1-yl)oxy)-7,9-dimethyl-14a-(((1-methylcyclopropyl)sulfonyl)carbamoyl)-5,16-dioxo-1,2,3,5,6,7,8,9,10,11,13a,14,14a,15,16,16a-hexadecahydrocyclopropa[e]pyrrolo[1,2-a][1,4]diazacyclopentadecin-6-yl)carbamate] | – | – | < 5.46 | < 5.46 | – | – |
| CCCOc1cnc(O[C@@H]2C[C@H]3C(=O)N[C@]4(C(=O)NS(=O)(=O)C5(C)CC5)C[C@H]4/C=C\CC[C@H](C)C[C@@H](C)[C@H](NC(=O)OC(C)(C)C)C(=O)N3C2)c2ccccc12 [Compound 5078, tert-butyl ((2R,6S,7R,9S,13aS,14aR,16aS,Z)-7,9-dimethyl-14a-(((1-methylcyclopropyl)sulfonyl)carbamoyl)-5,16-dioxo-2-((4-propoxyisoquinolin-1-yl)oxy)-1,2,3,5,6,7,8,9,10,11,13a,14,14a,15,16,16a-hexadecahydrocyclopropa[e]pyrrolo[1,2-a][1,4]diazacyclopentadecin-6-yl)carbamate] | – | – | 4.82 to 103 | 4.82 to 103 | 28.9 | 8.73 |
| CC(C)Oc1ccc2c(O[C@@H]3C[C@H]4C(=O)N[C@]5(C(=O)NS(=O)(=O)C6(C)CC6)C[C@H]5/C=C\CC[C@@H](C)C[C@@H](C)[C@H](NC(=O)O[C@@H]5C[C@@H]6C[C@@H]6C5)C(=O)N4C3)nccc2c1 [Compound 5163, (1R,3r,5S)-bicyclo[3.1.0]hexan-3-yl((2R,6S,7R,9R,13aS,14aR,16aS,Z)-2-((6-isopropoxyisoquinolin-1-yl)oxy)-7,9-dimethyl-14a-(((1-methylcyclopropyl)sulfonyl)carbamoyl)-5,16-dioxo-1,2,3,5,6,7,8,9,10,11,13a,14,14a,15,16,16a-hexadecahydrocyclopropa[e]pyrrolo[1,2-a][1,4]diazacyclopentadecin-6-yl)carbamate] | – | – | < 5.46 | < 5.46 | – | – |
| CC[C@@H]1C[C@H](C)CC/C=C\[C@@H]2C[C@@]2(C(=O)NS(=O)(=O)C2(C)CC2)NC(=O)[C@@H]2C[C@@H](Oc3ncc(OC)c4ccc(F)cc34)CN2C(=O)[C@H]1NC(=O)OC(C)(C)C [Compound 4181, tert-butyl (2R,6S,7R,9R,13aS,14aR,16aS,Z)-7-ethyl-2-(7-fluoro-4-methoxyisoquinolin-1-yloxy)-9-methyl-14a-(1-methylcyclopropylsulfonylcarbamoyl)-5,16-dioxo-1,2,3,5,6,7,8,9,10,11,13a,14,14a,15,16,16a-hexadecahydrocyclopropa[e]pyrrolo[1,2-a][1,4]diazacyclopentadecin-6-ylcarbamate] | – | – | < 5.46 | < 5.46 | – | – |
| COc1ccc2c(O[C@@H]3C[C@H]4C(=O)N[C@]5(C(=O)NS(=O)(=O)C6(C)CC6)C[C@H]5/C=C\CC[C@H](C)C[C@@H](C)[C@H](NC(=O)OC(C)(C)C)C(=O)N4C3)nc(-c3ccc(F)cc3)cc2c1 [Compound 3081, tert-butyl ((2R,6S,7R,9S,13aS,14aR,16aS,Z)-2-((3-(4-fluorophenyl)-6-methoxyisoquinolin-1-yl)oxy)-7,9-dimethyl-14a-(((1-methylcyclopropyl)sulfonyl)carbamoyl)-5,16-dioxo-1,2,3,5,6,7,8,9,10,11,13a,14,14a,15,16,16a-hexadecahydrocyclopropa[e]pyrrolo[1,2-a][1,4]diazacyclopentadecin-6-yl)carbamate] | 4.82 to 103 | < 5.46 | – | – | – | – |
| C[C@H]1CC/C=C\[C@@H]2C[C@@]2(C(=O)NS(=O)(=O)C2(C)CC2)NC(=O)[C@@H]2C[C@@H](Oc3nccc4c5c(ccc34)N(C)CCO5)CN2C(=O)[C@@H](NC(=O)c2ccc(N(C)C)cc2)[C@H](C)C1 [Compound 5303, (2R,6S,7R,9S,13aS,14aR,16aS,Z)-6-(4-(dimethylamino)benzamido)-7,9-dimethyl-2-((4-methyl-3,4-dihydro-2H-[1,4]oxazino[2,3-f]isoquinolin-7-yl)oxy)-N-((1-methylcyclopropyl)sulfonyl)-5,16-dioxo-1,2,3,5,6,7,8,9,10,11,13a,14,14a,15,16,16a-hexadecahydrocyclopropa[e]pyrrolo[1,2-a][1,4]diazacyclopentadecine-14a-carboxamide] | – | – | 4.82 to 103 | < 5.46 | – | – |
| [2H]C([2H])([2H])C(OC(=O)N[C@@H]1C(=O)N2C[C@H](Oc3nn(CC)c(=O)c4ccccc34)C[C@H]2C(=O)N[C@]2(C(=O)NS(=O)(=O)C3(C)CC3)C[C@H]2/C=C\CC[C@H](C)C[C@H]1C)(C([2H])([2H])[2H])C(F)(F)F [Compound 5054] | – | – | > 87.4 | > 87.4 | – | – |
